Experimental data as given in patent US4638070A, “Heterocyclic amino-alcohol derivatives” (Continental Pharma, priority 1980, dated 1987).

Experiments:
[1] = test system: guinea-pig ileum (histamine contractions); assay: Antispasmodic activity in vitro, contractions caused by histamine; settings: added 15 minutes before spasm-producing agent
Procedure: (§1) (4) The antispasmodic activity was measured in vitro, on guinea-pig ileum, the contractions of which were caused by histammne (Hist.), acetylcholine (Achol) or barium chloride (BaCl2). The tested products were added to perfusion bath 15 minutes before the spasm-producing agents.
(§2) The dose is given in micograms (μg) per ml of bath causing complete spasm inhibition.

[2] = test system: unanaesthetized, hypertension-suffering rat; assay: Antihypertensive activity (systolic arterial pressure), oral; format: in vivo; settings: 60 mg/kg, hypertensive rat, 3 hours
Procedure: (2) The antihypertensive activity was measured on unanaesthetized, hypertension-suffering rat. The tested substances were orally given at a rate of 60 mg/kg. The systolic arterial pressure was measured every 30 minutes for 2 hours before and for 3 hours after the tested product was given. Results are expressed as follows: […]
O: no reduction of arterial pressure.
+: reduction lower than 10 mm Hg.
++: reduction of 10 to 20 mm Hg.
+++: reduction higher than 20 mm Hg.

femoral artery = assay: Vasodilator activity, femoral artery (technique of perfused paw); format: in vivo; parameters: key: O: no action; +: slight activity; ++: effect equal to half the effect of papaverine; +++: effect equal to that of papaverine; ++++: effect higher than that of papaverine; settings: intra-arterial, 30 mg/kg, anaesthetized dog, vs papaverine at same dose
Procedure: (3) The vasodilator activity was measured at the level of femoral artery on anaesthetized dog (technique of perfused paw). The tested substances were given intra-arterially at the rate of 30 mg/kg. Results are expressed with respect to papaverine tested at the same dose.
++: effect equal to half the effect of papaverine.
+++: effect equal to that of papaverine.
++++: effect higher than that of papaverine.

[3] = test system: guinea-pig ileum (acetylcholine contractions); assay: Antispasmodic activity in vitro, contractions caused by acetylcholine; settings: added 15 minutes before spasm-producing agent
Procedure: as §1, §2

[4] = Acute toxicity, oral, LD50 (Litchfield and Wilcoxon); settings: mouse, in vivo, fasted male mice, confidence limits p=95% in brackets
Procedure: (1) The acute toxicity was determined on fasted male mice. The tested substances were orally administered and LD50 values (lethal dose for 50% of animals) were calculated according to the method of Litchfield and Wilcoxon (J. Pharmacol. exp. Ther. 96, 94-113, 1949). These LD50 values are given in mg/kg and also, when possible, with their confidence limits for p=95%.

| Compound | ANTISPASMODIC ACTIVITY HIST. (dose causing complete spasm inhibition) [1] [μg per ml] | ANTIHYPERTENSIVE ACTIVITY [2] | VASODILATOR ACTIVITY (femoral artery) | ANTISPASMODIC ACTIVITY ACHOL (dose causing complete spasm inhibition) [3] [μg per ml] | LD50 [4] [mg/kg] |
| --- | --- | --- | --- | --- | --- |
| CC(NCCCCc1ccc(Cl)cc1)C(O)c1ccc2c(c1)CCC2 (stereo not shown) [No 167] | 0.8 | +++ (reduction higher than 20 mm Hg) | +++ | 0.8 | ~270 |
| CC(NCCCCc1ccccc1)C(O)c1ccc2c(c1)SCCO2 (stereo not shown) [No 122] | 0.3 | +++ (reduction higher than 20 mm Hg) | ++++ | – | 1650 |
| CC(C)C(=O)OC(c1ccc2c(c1)CCS2)C(C)NCCCCc1ccccc1 (stereo not shown) [No 117] | 1.7 | +++ (reduction higher than 20 mm Hg) | ++++ | 0.8 | 2200 |
| CC(NCCCCc1ccc(Cl)cc1)C(O)c1ccc2c(c1)CCS2 (stereo not shown) [No 29] | 1.7 | +++ (reduction higher than 20 mm Hg) | ++ | 1.7 | 1750 |
| CC(NCCOc1ccccc1)C(O)c1ccc2c(c1)SCCS2 (stereo not shown) [No 104] | 8.3 | + ++ | – | 16.7 | > 4000 |
| CCC(=O)OC(c1ccc2c(c1)CCS2)C(C)NCCCCc1ccccc1 (stereo not shown) [No 118] | 0.8 | +++ (reduction higher than 20 mm Hg) | ++ | 1.7 | 2020 |
| CC(NCCOc1ccccc1)C(O)c1ccc2c(c1)SCCO2 (stereo not shown) [No 123] | 0.8 | +++ (reduction higher than 20 mm Hg) | ++++ | – | > 4000 |
| Cc1ccc(CCCCNC(C)C(O)c2ccc3c(c2)CCCS3)cc1 (stereo not shown) [No 34] | 0.8 | +++ (reduction higher than 20 mm Hg) | +++ | 0.8 | ~4000 |
| CC1Cc2cc(C(O)C(C)NCCSc3ccccc3)ccc2S1 (stereo not shown) [No 106] | 1.7 | ++ (reduction of 10 to 20 mm Hg) | +++ | 1.7 | > 4000 |
| CC(NCCCc1ccc(Cl)cc1)C(O)c1ccc2c(c1)CCCS2 (stereo not shown) [No 78] | 0.8 | +++ (reduction higher than 20 mm Hg) | ++++ | 1.7 | 725 |
| CC(NCCOc1ccc(Cl)cc1)C(O)c1ccc2c(c1)CCC2 (stereo not shown) [No 169] | 3.3 | +++ (reduction higher than 20 mm Hg) | +++ | 0.8 | > 4000 |
| CC1CSc2ccc(C(O)C(C)NCCCCc3ccccc3)cc2C1 (stereo not shown) [No 45] | 0.8 | + (reduction lower than 10 mm Hg) | +++ | 0.8 | > 4000 |
| CCC(=O)c1ccc(OCCNC(C)C(O)c2ccc3c(c2)CC(C)S3)cc1 (stereo not shown) [No 116] | 0.17 | ++ (reduction of 10 to 20 mm Hg) | ++ | 3.3 | > 4000 |
| CC(C(O)c1ccc2c(c1)CCC2)N1CCC(Cc2ccccc2)CC1 (stereo not shown) [No 172] | 0.08 | +++ (reduction higher than 20 mm Hg) | ++++ | 1.7 | 1900 |
| CC1Cc2cc(C(O)C(C)NCCOc3ccc(Cl)cc3)ccc2O1 (stereo not shown) [No 84] | 8.3 | +++ (reduction higher than 20 mm Hg) | +++ | 3.3 | 1200 |
| Cc1ccc(CCCCNC(C)C(O)c2ccc3c(c2)CCS3)cc1 (stereo not shown) [No 32] | 0.8 | +++ (reduction higher than 20 mm Hg) | – | 1.7 | 4000 |
| CCCCSCCCNC(C)C(O)c1ccc2c(c1)CCC2 (stereo not shown) [No 178] | 1.7 | ++ (reduction of 10 to 20 mm Hg) | ++++ | – | 870 |
| CCC(=O)c1ccc(OCCNC(C)C(O)c2ccc3c(c2)CCS3)cc1 (stereo not shown) [No 108] | 0.8 | ++ (reduction of 10 to 20 mm Hg) | +++ | 3.3 | > 4000 |
| CC(NCCCCc1ccccc1)C(O)c1ccc2c(c1)CCO2 (stereo not shown) [No 35] | 0.8 | +++ (reduction higher than 20 mm Hg) | ++ | 1.7 | 430 |
| CCC(NCCCCc1ccccc1)C(O)c1ccc2c(c1)CCS2 (stereo not shown) [No 115] | 0.8 | +++ (reduction higher than 20 mm Hg) | +++ | 1.7 | ~2500 |
| CC1Cc2cc(C(O)C(C)NCCCCc3ccc(Cl)cc3)ccc2O1 (stereo not shown) [No 65] | 0.8 | +++ (reduction higher than 20 mm Hg) | +++ | 1.7 | 160 |
| CC(NCCOc1ccccc1)C(O)c1ccc2c(c1)CCS2 (stereo not shown) [No 47] | 1.7 | ++ (reduction of 10 to 20 mm Hg) | ++ ++ | 1.7 | > 4000 |
| CC1CCc2cc(C(O)C(C)NCCCCc3ccccc3)ccc2S1 (stereo not shown) [No 5, 1-(2-methyl-6-thiochromanyl)-2-(4-phenylbutylamino)-1-propanol] | – | ++ (reduction of 10 to 20 mm Hg) | ++++ | 3.3 | 3600 |
| CC1Cc2cc(C(O)C(C)NCCOc3ccccc3)ccc2O1 (stereo not shown) [No 89] | 8.3 | +++ (reduction higher than 20 mm Hg) | +++ | 8.3 | 550 |
| CC(NCCCCc1ccccc1)C(O)c1ccc2c(c1)SCCS2 (stereo not shown) [No 100] | 8.3 | +++ (reduction higher than 20 mm Hg) | ++++ | 1.7 | > 2000 |
| CC(NCCc1ccccc1)C(O)c1ccc2c(c1)CCS2 (stereo not shown) [No 6] | – | + (reduction lower than 10 mm Hg) | +++ | 3.3 | < 500 |
| C=CCCCCCCCCCNC(C)C(O)c1ccc2c(c1)CCS2 (stereo not shown) [No 92] | 16.7 | ++ (reduction of 10 to 20 mm Hg) | – | 16.7 | > 4000 |
| CC1Cc2cc(C(O)C(C)NCCOCc3ccccc3)ccc2S1 (stereo not shown) [No 120] | 0.8 | ++ (reduction of 10 to 20 mm Hg) | +++ | – | ~1450 |
| CCCC(=O)OC(c1ccc2c(c1)CCS2)C(C)NCCCCc1ccccc1 (stereo not shown) [No 130] | – | +++ (reduction higher than 20 mm Hg) | – | – | 3700 |
